ChEMBL document CHEMBL2331413, “Novel in vivo active anti-malarials based on a hydroxy-ethyl-amine scaffold” (Bioorg Med Chem Lett, 2013)
pIC50: −log10 of the molar value.

Legend:
Format in all cases: functional, organism-based
Plasmodium falciparum [1] = test: Antimalarial activity against chloroquine-sensitive Plasmodium falciparum NF54 infected in RBC after 72 hrs by [3H]hypoxanthine incorporation assay in presence of 0.5 % albumax
Plasmodium falciparum [2] = test: Antimalarial activity against chloroquine-sensitive Plasmodium falciparum NF54 infected in RBC after 72 hrs by [3H]hypoxanthine incorporation assay in presence of 50 % serum
Plasmodium falciparum [3] = test: Antimalarial activity against chloroquine-sensitive Plasmodium falciparum NF54 infected in RBC after 48 hrs by [3H]hypoxanthine incorporation assay in presence of 0.5 % albumax
Plasmodium falciparum [4] = test: Antimalarial activity against chloroquine-sensitive Plasmodium falciparum NF54 infected in RBC after 24 hrs by [3H]hypoxanthine incorporation assay in presence of 0.5 % albumax

SMILES | pIC50 (Plasmodium falciparum [1]) | pIC50 (Plasmodium falciparum [2]) | pIC50 (Plasmodium falciparum [3]) | pIC50 (Plasmodium falciparum [4])
CCCN(CCC)C(=O)c1cccc(C(=O)N[C@@H](Cc2ccccc2)[C@H](O)CNC2(c3ccccc3)CCCC2)c1 | 7.92 | 6.77 | – | –
CCCN(CCC)C(=O)c1cccc(C(=O)N[C@@H](Cc2ccccc2)[C@H](O)CN2CCN(Cc3ccccc3)CC2)c1 | < 6.30 | – | – | –
CCCN(CCC)C(=O)c1cccc(C(=O)N[C@@H](Cc2ccccc2)[C@H](O)CN[C@H](C)C2CCCCC2)c1 | 7.96 | 7.32 | – | –
CCCN(CCC)C(=O)c1cccc(C(=O)N[C@@H](Cc2ccccc2)[C@@H](O)CNCCCc2ccccc2)c1 | < 6.30 | < 6.30 | – | –
CC(C)(NC[C@@H](O)[C@H](Cc1ccccc1)NC(=O)c1ccc2cc[nH]c2c1)c1ccccc1 | 6.84 | – | – | –
CC(=O)Nc1cccc(C(=O)N[C@@H](Cc2ccccc2)[C@H](O)CNC(C)(C)c2ccccc2)c1 | 7.36 | – | – | –
CCCN(CCC)Cc1cc(C(C)NC[C@@H](O)[C@H](Cc2ccccc2)NC(=O)c2ccc(N3CCN(C)CC3)cc2)ccc1O (stereo not given in full) | 7.05 | 7.21 | 7.12 | 7.05
CCCN(CCC)C(=O)c1cccc(C(=O)N[C@@H](Cc2ccccc2)[C@H](O)CNC(C)(C)c2ccc(OC)cc2)c1 | 7.89 | 7.36 | – | –
CCCN(CCC)C(=O)c1cccc(C(=O)N[C@@H](Cc2ccccc2)[C@H](O)CNC(C)C)c1 | 7.11 | 6.82 | – | –
CCCN(CCC)C(=O)c1ccccc1C(=O)N[C@@H](Cc1ccccc1)[C@H](O)CN[C@H](C)c1ccccc1 | < 6.30 | < 6.30 | – | –
CC(C)(NC[C@@H](O)[C@H](Cc1ccccc1)NC(=O)Cc1cccc2ccccc12)c1ccccc1 | < 6.30 | – | – | –
Cn1cc(C(=O)N[C@@H](Cc2ccccc2)[C@H](O)CNC(C)(C)c2ccccc2)c2ccccc21 | < 6.30 | – | – | –
C[C@@H](NC[C@@H](O)[C@H](Cc1ccccc1)NC(=O)c1ccc(N2CCN(Cc3ccccc3)CC2)cc1)c1ccccc1 | 7.68 | 7.41 | – | –
C[C@@H](NC[C@@H](O)[C@H](Cc1ccccc1)NC(=O)c1cccc(C(=O)N2CCCCCC2)c1)c1ccccc1 | 8.42 | 7.89 | – | –
Cn1cnc(C(=O)N[C@@H](Cc2ccccc2)[C@H](O)CNC(C)(C)c2ccccc2)c1 | < 6.30 | – | – | –
CCN(CC)Cc1cc(C(=O)N[C@@H](Cc2ccccc2)[C@H](O)CN[C@H](C)c2ccccc2)ccc1O | 6.45 | < 6.30 | 6.52 | 6.42
CC(C)(NC[C@@H](O)[C@H](Cc1ccccc1)NC(=O)c1cccc(C(F)(F)F)c1)c1ccccc1 | 6.52 | – | – | –
C[C@@H](NC[C@@H](O)[C@H](Cc1ccccc1)NC(=O)c1ccc(O)c(CN2CCCC2)c1)c1ccccc1 | 6.58 | 6.41 | – | –
CCN(CC)Cc1cc(Nc2ccc(C(=O)N[C@@H](Cc3ccccc3)[C@H](O)CN[C@H](C)c3ccccc3)cc2)ccc1O | 8.08 | 8.44 | > 8.11 | 6.88
CCCN(CCC)C(=O)c1cccc(C(=O)N[C@@H](Cc2ccccc2)[C@H](O)CN[C@@H](C)c2ccccc2)c1 | 7.68 | – | – | –
CC(NC[C@@H](O)[C@H](Cc1ccccc1)NC(=O)c1ccc(N2CCN(C)CC2)cc1)c1ccc(O)c(CN2CCCCC2)c1 (stereo not given in full) | 6.69 | 6.90 | – | –
CC(=O)N[C@@H](Cc1ccccc1)[C@H](O)CNC(C)(C)c1ccccc1 | < 6.30 | – | – | –
CCCN(CCC)C(=O)c1cccc(C(=O)N[C@@H](Cc2ccccc2)[C@H](O)CNC2CCc3ccccc32)c1 (stereo not given in full) | 7.32 | – | – | –

SMILES | pIC50 (Plasmodium falciparum [1]) | pIC50 (Plasmodium falciparum [2]) | pIC50 (Plasmodium falciparum [3]) | pIC50 (Plasmodium falciparum [4])
CCCN(CCC)C(=O)c1cccc(C(=O)N[C@@H](Cc2ccccc2)[C@H](O)CNC(C)(C)C)c1 | 7.62 | 7.18 | – | –
CCCN(CCC)C(=O)c1cccc(C(=O)N[C@@H](Cc2ccccc2)[C@H](O)CNC2CCN(C)CC2)c1 | < 6.30 | < 6.30 | – | –
CC(C)(NC[C@@H](O)[C@H](Cc1ccccc1)NC(=O)c1ccncc1)c1ccccc1 | < 6.30 | – | – | –
CCCN(CCC)C(=O)c1cccc(C(=O)N[C@@H](Cc2ccccc2)[C@H](O)CN[C@@H](C)C2CCCCC2)c1 | 6.49 | 6.33 | – | –
CCN(CC)Cc1cc(CNC[C@@H](O)[C@H](Cc2ccccc2)NC(=O)c2ccc(N3CCN(C)CC3)cc2)ccc1O | 6.48 | 6.78 | 6.50 | 6.39
CCCN(CCC)Cc1ccc(Nc2ccc(C(=O)N[C@@H](Cc3ccccc3)[C@H](O)CN[C@H](C)c3ccccc3)cc2)cc1O | 7.66 | 7.70 | – | 7.11
CCCN(CCC)C(=O)c1cccc(C(=O)N[C@@H](Cc2ccccc2)[C@H](O)CNCCCc2ccccc2)c1 | 7.37 | 6.90 | – | –
COc1cccc(C(=O)N[C@@H](Cc2ccccc2)[C@H](O)CNC(C)(C)c2ccccc2)c1 | 6.46 | – | – | –
CN1CCN(c2ccc(C(=O)N[C@@H](Cc3ccccc3)[C@H](O)CNCc3ccc(O)c(CN4CCCC4)c3)cc2)CC1 | < 6.30 | 6.53 | < 6.30 | < 6.30
C[C@@H](NC[C@@H](O)[C@H](Cc1ccccc1)NC(=O)c1cccc(C(=O)N2CCN(C)CC2)c1)c1ccccc1 | 7.01 | 6.99 | – | –
CCCN(CCC)C(=O)c1cccc(C(=O)N[C@@H](Cc2ccccc2)[C@H](O)CNC2CCCCC2)c1 | 7.85 | 7.55 | – | –
CCCN(CCC)C(=O)c1cccc(C(=O)N[C@@H](Cc2ccccc2)[C@H](O)CNC2(c3ccccc3)CC2)c1 | 6.94 | 6.36 | – | –
CCN(CC)Cc1ccc(Nc2ccc(C(=O)N[C@@H](Cc3ccccc3)[C@H](O)CN[C@H](C)c3ccccc3)cc2)cc1O | > 8.11 | 8.05 | 7.82 | 7.19
CC(C)(NC[C@@H](O)[C@H](Cc1ccccc1)NC(=O)C1CCCC1)c1ccccc1 | < 6.30 | – | – | –
CC(C)(NC[C@@H](O)[C@H](Cc1ccccc1)NC(=O)Cc1ccccc1)c1ccccc1 | < 6.30 | – | – | –
CN1CCN(c2ccc(C(=O)N[C@@H](Cc3ccccc3)C(F)(F)CNC3CCCC3)cc2)CC1 | < 6.30 | < 6.30 | – | –
CCCN(CCC)C(=O)c1cccc(C(=O)N[C@@H](Cc2ccccc2)[C@H](O)CNC(C)(C)c2cccc(C#N)c2)c1 | > 8.82 | 8.07 | – | –
CCCN(CCC)C(=O)c1cccc(C(=O)N[C@@H](Cc2ccccc2)[C@H](O)CNC(C)(C)c2cccc(F)c2)c1 | 8.02 | 7.30 | – | –
CC(C)C[C@H](NC(=O)c1ccc(N2CCN(C)CC2)cc1)[C@H](O)CNC1CCCC1 | < 6.30 | < 6.30 | – | –
C[C@@H](NC[C@@H](O)[C@H](Cc1ccccc1)NC(=O)c1cccc(C(=O)N2CCCC2)c1)c1ccccc1 | 8.31 | 8.03 | – | –
CN1CCCc2cc(C(=O)N[C@@H](Cc3ccccc3)[C@H](O)CNC(C)(C)c3ccccc3)ccc21 | < 6.30 | – | – | –
CCCN(CCC)C(=O)c1cccc(C(=O)N[C@@H](Cc2ccccc2)[C@H](O)CNC(C)(C)c2ccccc2F)c1 | 7.68 | 6.85 | – | –
CCCN(CCC)C(=O)c1cccc(C(=O)N[C@H](CCNC(C)C)Cc2ccccc2)c1 | < 6.30 | < 6.30 | – | –

SMILES | pIC50 (Plasmodium falciparum [1]) | pIC50 (Plasmodium falciparum [2]) | pIC50 (Plasmodium falciparum [3]) | pIC50 (Plasmodium falciparum [4])
CC(=O)N1CCN(c2ccc(C(=O)N[C@@H](Cc3ccccc3)[C@H](O)CNC(C)(C)c3ccccc3)cc2)CC1 | 6.79 | – | – | –
CCCN(CCC)C(=O)c1cccc(C(=O)N[C@@H](Cc2ccccc2)[C@H](O)CNCc2ccccc2)c1 | < 6.30 | – | – | –
Cc1cc(C(=O)N[C@@H](Cc2ccccc2)[C@H](O)CNC(C)(C)c2ccccc2)nn1C | < 6.30 | – | – | –
CN1CCN(c2ccc(C(=O)N[C@@H](Cc3ccccc3)[C@H](O)CNC3CCCC3)cc2)CC1 | 7.09 | 7.12 | – | –
CC(C)(NC[C@@H](O)[C@H](Cc1ccccc1)NC(=O)c1ccc(Cl)cc1)c1ccccc1 | 6.46 | – | – | –
CCCN(CCC)C(=O)c1cccc(C(=O)N[C@@H](Cc2ccccc2)[C@H](O)CNC2CCOCC2)c1 | 7.80 | 7.47 | – | –
CCCN(CCC)C(=O)c1cccc(C(=O)N[C@@H](Cc2ccccc2)[C@H](O)CNC(C)(C)c2cccc(OC)c2)c1 | > 8.11 | 7.60 | – | –
CCCN(CCC)C(=O)c1cccc(C(=O)N[C@@H](Cc2ccccc2)[C@H](O)CNCCc2ccccc2)c1 | 6.73 | – | – | –
CC(C)(C)c1ccc(/C=C/C(=O)N[C@@H](Cc2ccccc2)[C@H](O)CNC(C)(C)c2ccccc2)cc1 | 6.35 | – | – | –
CC1CN(c2ccc(C(=O)N[C@@H](Cc3ccccc3)[C@H](O)CN[C@H](C)c3ccccc3)cc2)CCN1 (stereo not given in full) | 6.72 | 6.52 | – | –
CCCNC(=O)c1cccc(C(=O)N[C@@H](Cc2ccccc2)[C@H](O)CN[C@H](C)c2ccccc2)c1 | 7.92 | 7.52 | – | –
CCCN(CCC)C(=O)c1cccc(C(=O)N[C@@H](Cc2ccccc2)[C@H](O)CNC(C)(C)c2ccc(F)cc2)c1 | 7.62 | 6.96 | – | –
CCCN(CCC)C(=O)c1cccc(C(=O)N[C@@H](Cc2ccccc2)[C@H](O)CNC(C)(C)c2ccccc2)c1 | 8.12 | 7.40 | – | –
CC(C)(NC[C@@H](O)[C@H](Cc1ccccc1)NC(=O)c1cccc2ncccc12)c1ccccc1 | < 6.30 | – | – | –
CC(C)(NC[C@@H](O)[C@H](Cc1ccccc1)NC(=O)c1cccc(-c2ccccc2)c1)c1ccccc1 | 7.43 | – | – | –
CCCN(CCC)C(=O)c1cccc(C(=O)N[C@@H](Cc2ccccc2)[C@H](O)CNC(C)(C)c2ccc3ccccc3c2)c1 | 7.35 | 6.84 | – | –
COCCCC(=O)N[C@@H](Cc1ccccc1)[C@H](O)CNC(C)(C)c1ccccc1 | < 6.30 | – | – | –
CCCN(CCC)C(=O)c1cccc(C(=O)N[C@@H](Cc2ccccc2)[C@H](O)CNC(C)(C)c2ccc(C#N)cc2)c1 | 7.26 | 6.73 | – | –
CCCN(CCC)C(=O)c1cccc(C(=O)N[C@@H](Cc2ccccc2)[C@H](O)CN2CCN(C(C)=O)CC2)c1 | < 6.30 | – | – | –
CN(C)c1cccc(C(=O)N[C@@H](Cc2ccccc2)[C@H](O)CNC(C)(C)c2ccccc2)c1 | 6.99 | – | – | –
CCCN(CCC)C(=O)c1cccc(C(=O)N[C@@H](Cc2ccccc2)[C@H](O)CNC2Cc3ccccc3C2)c1 | 7.96 | – | – | –
